Assay results taken from patent US20260132165A1, “MODIFIED NUCLEOSIDE ANALOGUE AND USE THEREOF, AND NUCLEOSIDE ANALOGUE-CONTAINING DOUBLE-STRANDED OLIGONUCLEOTIDE AND USE THEREOF” (RIGERNA THERAPEUTICS (BEIJING) CO., LTD., priority 2023, published 2026).
Strand notation (5' to 3'): a small letter for the sugar, then the base; units joined by * are phosphorothioate-linked, units joined directly phosphodiester-linked; [ ] holds rarer units or linkages, { } end groups; capitals alone tell only the bases. [Uhd] = commercial lipid-conjugated uridine analogue Uhd (C16), from Hongene, reference; {VP} = (thio)vinylphosphonate on the antisense 5' nucleotide, as listed; e = 2'-O-(2-methoxyethyl) (MOE); m = 2'-O-methyl; f = 2'-fluoro

Columns and labels:
[1] = tested on: target gene SOD1; assay: Test Example 9: inhibitory activity of lipid conjugated siRNA sequences on SOD1 in mouse muscle tissues; assay type: in vivo, C57BL/6j mice; conditions: D14; for Diaphragm % Mean value of inhibition rate / Heart % Mean value of inhibition rate / Left quadriceps muscle % Mean value of inhibition rate: tail vein injection 5 mg/kg; for Left quadriceps muscle % Mean value of inhibition rate: left hind leg quadriceps muscle
Experimental: (§1) RNA extraction: the above tissue samples were taken out from the RNAlater, and smashed for 60 s in Tissuelyser type II full-automatic tissue homogenizer, and total RNAs of various tissue samples were extracted using the full-automatic nucleic acid extraction instrument and the nucleic acid extraction kit from Zhejiang Hanwei Science and Technology Co. Ltd. according to methods described in instructions.
(§2) Reverse transcription reaction: 1 μg of the extracted total RNAs of the tissue samples were taken, and configured into 20 μL of reverse transcription system according to a method described in kit instructions by using a reverse transcription kit (Reverse Transcription System, A3500) from Promega Corporation and selecting Oligo (dT)15 reverse transcription primers, and the reverse transcription reaction was completed. After the reaction was ended, 80 μL of RNase-Free water was added into the reverse transcription system to provide cDNA solution for Real-time PCR detection.
(§3) Real-time PCR detection: 20 μL of Real-time PCR reaction system per PCR detection well was configured according to a method described in kit instructions using SYBR™ Select Master Mix (Catalog number: 4472908) reagent from ABI company. Each detection system contained 5 μL of cDNA template obtained from the above reverse transcription reaction, 10 μL of SYBR™ Select Master Mix, 0.5 μL of 10 μM upstream primers, 0.5 μL of 10 μM downstream primers, and 4 μL of RNase-Free H2O. The configured reaction system was subjected to Real-time PCR amplification on ABI StepOnePlus PCR instrument by a three-step method, wherein an amplification procedure was pre-denaturation at 95° C. for 10 min, then denaturation at 95° C. for 30 s, annealing at 60° C. for 30 s, and extension at 72° C. for 30 s; and processes of denaturation, annealing, and extension were repeated for 40 cycles. Gene expression differences were calculated by the ΔΔCt method after completion of the procedure.
(§4) In the real-time fluorescence quantitative PCR method, relative quantitative calculation of remaining expression level and inhibition rate of gene mRNA of interest in various test groups was performed by the ΔΔCt method, and the calculation method is as follows:
The present test example evaluated, by an evaluation method for inhibitory activity on a target gene in mice, the inhibitory activity of siRNA sequence RZ899090 with the sense strand with the NM073 conjugation at Position 4, siRNA sequence RZ899091 with the sense strand with the NM074 conjugation at Position 4, siRNA sequence RZ899078 with the sense strand with the NM202 conjugation at Position 6 and siRNA reference sequence RZ899093 with the sense strand with the Uhd conjugation at Position 4, siRNA reference sequence RZ899076 with the sense strand with the NM200 conjugation at Position 4 on the target gene SOD1 of interest in muscle tissues in different parts of mice.
6-8 Week-old C57BL/6j mice were randomly grouped by body weight, 5 per group, 6 groups in total. Mice in each group were dosed with the above siRNA conjugates by tail vein injection, with an administration dose of 5 mg/kg per mouse, and an administration volume of 150 μL. PBS control group was administered with the same volume of siRNA conjugate-free PBS solution. The day of administration was recorded as D0, and 5 mice in each group were sacrificed on D14 after administration. Tissues such as left hind leg quadriceps muscle, diaphragm, and heart tissues were respectively taken and stored in the RNAlater. RNA extraction, reverse transcription, and real-time fluorescence quantitative detection were performed on various tissues according to the above method, and gene expression differences were calculated by the above ΔΔCt method.

[2] = tested on: target gene SOD1; assay: Test Example 6: inhibitory activity of NM073, NM074 conjugated siRNA sequences on SOD1 by intrathecal administration to rats; assay type: in vivo, SD rats; conditions: D28; for Cerebellum % Mean value of inhibition rate / Cortex % Mean value of inhibition rate / Hippocampus % Mean value of inhibition rate / Cervical segment % Mean value of inhibition rate / Lumbar segment % Mean value of inhibition rate / Thoracic segment % Mean value of inhibition rate: intrathecal, 900 μg per rat; for Cortex % Mean value of inhibition rate: cerebral cortex; for Cervical segment % Mean value of inhibition rate: spinal cord cervical segment; for Lumbar segment % Mean value of inhibition rate: spinal cord lumbar segment; for Thoracic segment % Mean value of inhibition rate: spinal cord thoracic segment
Experimental: 6-8 Week-old SD rats were randomly grouped by body weight. Rats in each group were administered with siRNA by intrathecal administration, with an administration dose of 900 μg per rat. Injection was administered from rat spinal cord L5-L6, with an administration volume of 40 μL. Needle was retained for 2 min after completion of injection, and then slowly withdrawn. PBS control group was administered with the same volume of siRNA conjugate-free PBS solution. The day of administration was recorded as 0 day (D0), and the rats were sacrificed at observation point after administration. Different segments of spinal cord and different regions of brain were respectively taken and stored in the RNAlater.
as §1, §2, §3, §4
The present test example evaluated, by an evaluation method for inhibitory activity on a target gene by intrathecal administration to rats, the inhibitory activity of siRNA sequence RZ899090 with the NM073 conjugation at Position 4, siRNA sequence RZ899091 with the NM074 conjugation at Position 4 and siRNA control sequence RZ899093 with the Uhd conjugation on the target gene SOD1 of interest in spinal cord and brain of rats. The above conjugation vectors were different in that NM073 was C18 aliphatic chain and NM074 was C20 aliphatic chain.
6-8 Week-old SD rats were randomly grouped by body weight, 5 per group, 4 groups in total. Rats in each group were dosed with the above siRNA conjugates by intrathecal administration, with an administration dose of 900 μg per rat, and an administration volume of 40 μL. PBS control group was administered with the same volume of siRNA conjugate-free PBS solution. The day of administration was recorded as D0, and the rats were sacrificed on D28 after administration. […]

[3] = tested on: target gene SOD1; assay: Test Example 4: lipid conjugated siRNA sequences with different carbon chain lengths, SOD1 in mouse brain, lateral ventricle administration; assay type: in vivo, C57BL/6j mice; design: Right hemisphere Mean value of inhibition rate / Left hemisphere Mean value of inhibition rate: unit not given here; conditions: D5; for Left hemisphere Mean value of inhibition rate: left hemisphere (non-administration side); for Left hemisphere Mean value of inhibition rate / Right hemisphere Mean value of inhibition rate: lateral ventricle; for Right hemisphere Mean value of inhibition rate: right hemisphere (administration side)
Experimental: 6-8 Week-old C57BL/6j mice were randomly grouped by body weight. Mice in each group were administered with siRNA by lateral ventricle administration, with an administration dose per mouse depending on a specific test. Taking Bregma in mouse brain as point 0 (origin), coordinates of right ventricle were found using the cerebral stereotaxic apparatus and position was marked on surface of skull (position of lateral ventricle was AP (anteroposterior, bregma anterior and posterior): −0.58 mm, ML (mediolateral, left and right of middle raphe): −1.2 mm, DV (dorsoventral, up and down cerebral dura mater plane): −2.2 mm). A dental electric drill was used to drill in the skull above a position of interest, and then medicament was injected into the lateral ventricle by a micro-dosing pump, wherein a total injection volume was 5 μL, and injection duration was 10 min. Needle was retained for 5 min after completion of injection, and then slowly withdrawn. Afterwards, needle hole was sealed with biomedical glue, and then head skin was adhered. After animals woke up, the animals were returned back to animal house and further fed. PBS control group was administered with the same volume of siRNA-free PBS solution. The day of administration was recorded as 0 day (D0), and the mice were sacrificed at observation point after the administration. Different parts of brain region were respectively taken and stored in the RNAlater.
as §1, §2, §3
In the real-time fluorescence quantitative PCR method, relative quantitative calculation of remaining expression level and inhibition rate of gene mRNA of interest in various test groups was performed by the ΔΔCt method, and the calculation method is as follows: […]

Row | Substance | Diaphragm % Mean value of inhibition rate [1] [%] | inhibitory activity compared with the NM200 conjugated reference sequence RZ899076 ([1]; heart tissues, tail vein 5 mg/kg) | Heart % Mean value of inhibition rate [1] [%] | Left quadriceps muscle % Mean value of inhibition rate [1] [%] | inhibitory action on the left quadriceps muscle and diaphragm ([1]; left quadriceps muscle and diaphragm, tail vein 5 mg/kg) | Cerebellum % Mean value of inhibition rate [2] [%] | Cortex % Mean value of inhibition rate [2] [%] | Hippocampus % Mean value of inhibition rate [2] [%] | level of inhibition on the target gene compared with the Uhd control conjugate (RZ899093) ([2]; intrathecal 900 μg per rat) | Cervical segment % Mean value of inhibition rate [2] [%] | Lumbar segment % Mean value of inhibition rate [2] [%] | Thoracic segment % Mean value of inhibition rate [2] [%] | inhibitory activity compared with the vector-free siRNA sequence RX599002 ([3]; left and right hemisphere, lateral ventricle 150 μg per mouse) | Left hemisphere Mean value of inhibition rate ([3]; 150 μg per mouse) | activity compared with Uhd conjugated reference sequence RZ899093 and NM200 (C22) conjugated reference sequence RZ899076 ([3]; right hemisphere (administration side) and left hemisphere (non-administration side), 150 μg per mouse) | Right hemisphere Mean value of inhibition rate ([3]; 150 μg per mouse)
1 | RZ899091: siRNA sequence with the sense strand with the NM074 (C20) conjugation at Position 4; SEQ ID NO: 16 / 23 (sense UUUNAAUCCUCACUCUAAA; antisense UUUAGAGUGAGGAUUAAAAUG; NM074 (C20) conjugate at sense position 4; modified_base 1..2 OTHER; 2'-methoxy and 5'-thiophosphate modified nucleotides; modified_base 3 OTHER; 2'-methoxy modified nucleotide; modified_base 4 OTHER; n is the synthetic nucleotide analog NM074 as described in the disclosure.; modified_base 5..6 OTHER; 2'-methoxy modified nucleotides; modified_base 7..10 OTHER; 2'-fluoro modified nucleotides; modified_base 11..19 OTHER; 2'-methoxy modified ; modified_base 1 OTHER; 2'-methoxy and 5'-thiovinylphosphonate modified nucleotide; modified_base 2 OTHER; 2'-fluoro and 5'-thiophosphate modified …) | 39.22 | superior inhibitory activity | 76.73 | 33.02 | certain inhibitory action | 73.86 | 28.78 | 70.69 | superior level of inhibition on the target gene in the spinal cord segment, cerebellum, and hippocampus | 92.15 | 95.17 | 98.15 | superior inhibitory activity | 70.41 | substantially comparable or superior activity | 82.32
2 | RZ899093: siRNA reference sequence with the sense strand with the Uhd (C16) conjugation at Position 4; SEQ ID NO: 13 / 23 (sense mU*mU*mU[Uhd]mAmAfUfCfCfUmCmAmCmUmCmUmAmAmA; antisense {VP}-mU*fU*mUmAmGfAmGmUmGmAmGfGmAfUeUfAmAmAmA*mU*mG) [reference compound] | 64.76 |  | 51.52 | 56.55 |  | 55.89 | 36.29 | 52.87 |  | 69.68 | 95.31 | 94.90 |  | 70.23 |  | 80.47
